Numbers after ± are expanded uncertainties.
assay: Boiling temperature at pressure P; conditions: 101.3 kPa; Liquid; Ebulliometric method (Recirculating still)

| Compound | Boiling temperature at pressure P [°C] |
| --- | --- |
| CC(=O)OCC(C)C [2-methylpropyl ethanoate] | 116.60 ± 0.2 |
| C=CCO [2-propenol] | 96.8 ± 0.44 |
| CCCCOC(C)=O [butyl ethanoate] | 126.00 ± 0.2 |
| CCCCOC(=O)CC [butyl propanoate] | 145.10 ± 0.2 |
